Reference: publication PMC3066593, “Liposomal Tumor Targeting in Drug Delivery Utilizing MMP-2- and MMP-9-Binding Ligands” (Journal of Drug Delivery, 2010)
One block for each molecule: values may come before it. Positions of bridges follow the written chain, without caps; N, C: chain ends. Residues, ends and D or L forms follow the SMILES beside them.

Experiments:
[1] = Hepatic accumulation of 125I-labelled peptides in normal mice; assay type: in vivo
Description: Radiolabeling of peptides and all liposomal formulations with iodine-125 (^125I) was performed using the IODOGEN (Pierce, Rockford, IL). The CTT2-PEG3400-DSPE peptide was labeled with ^125I using iodogen as a catalyst. 5 MBq of Na125I (Amersham, Buckinghamshire, England) in 0.5 ml PBS was added to a tube containing 10 μg dried iodogen and 100 μg CTT2-PEG3400-DSPE peptide construct. The mixture was incubated for 20 min at room temperature. The ^125I-bound particle fractions were purified by elution from PD-10 columns. The activity of the peptide was determined in a gamma counter (Cobra II, Packard Instruments).
Following single i.v. tracer doses of purified ^125I-CTT1-peptide (∼40 μg/mouse), ^125I-CTT2-peptide (∼40 μg/mouse), or CTT2-micelles (200 μg/mouse; 200 kBq), the percentage of the injected dose per gram of tissue (%ID/g) values, corrected for radioactive decay to the time of injection, were measured in tumor and major tissues/organs (heart, liver, kidney, lung, muscle, brain, spleen, and tumor) by sacrificing groups of normal mice or mice bearing serous ovarian hindleg xenografts (OV-90) at specified time points.

[2] = test system: A2780 xenografts; assay: Therapeutic efficacy (survival) in subcutaneous A2780 xenografts; assay type: in vivo, NMRI nude mice; details: 9 mg/kg i.v.
Description: (§1) Therapeutic efficacy studies were conducted in subcutaneous A2780 xenografts using doxorubicin, administered as either CTT2-SL liposomes or Caelyx. Commercially available nonliposomal (“free”) drug (i.e., doxorubicin) and saline dilution buffer were used as treatment controls. A2780 ovarian cancer cells (5×10^6 in 100 μl PBS) were injected subcutaneously into the posterior flanks of NMRI nude mice (n = 40). Mice received i.v. bolus injections of CTT2-SL liposome, Caelyx, doxorubicin, and buffer. CTT2-SL liposomes were injected when tumor volumes reached 65 mm^3, while administration of Caelyx and doxorubicin to different xenograft mice was offset in time from CTT2-SL liposomes by 3 and 6 days, respectively. Doxorubicin, CTT2-SL liposomes, and Caelyx were injected at doses of 9 mg/kg each. Mouse body weights were monitored throughout the study period.

[3] = Mouse body weight during efficacy study; assay type: in vivo, NMRI nude mice; details: at day 9; 9 mg/kg doxorubicin equivalents at day 0, 3 and 6; mean of 9 mice; weights returned to initial levels one week later
Description: as §1

Liver accumulation of peptide per gram of tissue relative to muscle ([1]; nontumor-bearing normal mice, n = 5, single i.v. tracer dose ~40 μg/mouse, 125I label, compared between CTT1- and CTT2-peptide (Figure 4)): greater liver accumulation
Structure (SMILES): CC(C)C[C@@H]1NC(=O)[C@H]([C@@H](C)O)NC(=O)[C@H](Cc2ccccc2)NC(=O)CNC(=O)[C@H](Cc2c[nH]c3ccccc23)NC(=O)[C@H](Cc2c[nH]cn2)NC(=O)[C@H]([C@@H](C)O)NC(=O)[C@H]([C@@H](C)O)NC(=O)[C@@H](N)CSSC[C@@H](C(=O)O)NC1=O [CTT1-peptide] (H-CTTHWGFTLC-OH; disulfide 1-10)

Hepatic clearance ([1]; normal mice, compared with CTT1-peptide): more rapid hepatic clearance
Structure (SMILES): CC(C)C[C@@H]1NC(=O)[C@H]([C@@H](C)O)NC(=O)[C@H](Cc2ccccc2)NC(=O)CNC(=O)[C@H](Cc2c[nH]c3ccccc23)NC(=O)[C@H](Cc2c[nH]cn2)NC(=O)[C@H]([C@@H](C)O)NC(=O)[C@H]([C@@H](C)O)NC(=O)[C@@H](NC(=O)CNC(=O)[C@H](Cc2c[nH]cn2)NC(=O)[C@H](Cc2ccc(O)cc2)NC(=O)[C@H](CC(N)=O)NC(=O)[C@H](CCC(=O)O)NC(=O)[C@H](CCCNC(=N)N)NC(=O)CN)CSSC[C@@H](C(N)=O)NC1=O [CTT2-peptide] (H-GRENYHGCTTHWGFTLC-NH2; disulfide 8-17)

Structure (SMILES): COc1cccc2c1C(=O)c1c(O)c3c(c(O)c1C2=O)C[C@@](O)(C(=O)CO)C[C@@H]3O[C@H]1C[C@H](N)[C@H](O)[C@H](C)O1 [Doxorubicin, doxorubicin]
Day at which live mice with tumor size exceeding 1000 mm^3 were sacrificed [2]: 24 days
Maximum body weight loss [3]: about 10%
